Data as given in patent US20240383973A1, “METHODS FOR TREATING CALCITONIN GENE-RELATED PEPTIDE (CGRP) - EXPRESSING CANCERS” (The Board of Regents of the University of Oklahoma, priority 2022, published 2024).
“Also recorded” adds a separate entry of the source.

Assays:
[1] = tested on: Py230 murine mammary tumors; assay: Anti-CGRP/anti-PD-1 combination treatment effect on tumor volume and tumor regression; type: in vivo; conditions: treatment day 28-56, followed to day 70; 10 mice per group
Excerpt: The anti-PD-1 compound is a rat IgG2a anti-mouse PD-1 antibody, clone RMP1-14, obtained from Bio X Cell. The CGRP inhibitor is olcegepant. The isotype control is a rat IgG2a, clone 2A3, raised against human CD25, obtained from Bio X Cell.
Mice were transplanted with Py230 murine mammary tumors in the mammary fat pad. 28 days after tumor implantation the drug treatments were initiated. Treatments were: (1) Mock—isotype control and vehicle control, (2) CGRP inhibitor+isotype control, (3) anti-PD-1+vehicle control, and (4) Combination: CGRP inhibitor+anti-PD-1. Treatments were terminated 56 days after transplantation. The anti-PD-1 compound was a rat IgG2a anti-mouse PD-1 antibody, clone RMP1-14, obtained from Bio X Cell, the CGRP inhibitor was olcegepant, and the isotype control was a rat IgG2a, clone 2A3, raised against human CD25, obtained from Bio X Cell. Tumor volume, as determined by caliper measurement, was measured every other day until day 70 post-transplant. Average tumor mass of 10 individuals across two experiments is depicted (FIG. 4). The results (FIG. 5) also indicated the numbers of mice in the 4 treatment groups that experienced either tumor progression (i.e., continual growth of tumor), tumor stagnation (cessation of growth for at least 3 weeks), or tumor regression (tumor no longer palpable) in each cohort. […]

[2] = tested on: tumor infiltrating T cells and B cells; assay: Flow cytometric analysis of tumor-isolated immune cells after BIBN4096 treatment; type: in vivo, mice; conditions: day 63, flow cytometry; vs mock
Procedure: (§1) B6 mice were transplanted with Py230 tumor cells in the 4th mammary fat pad. Beginning on Day 28 post-transplant, mice were either injected with the CGRP inhibitor BIBN4096 in DMSO (white) or DMSO alone (black). 63 days post-transplant, tumors were isolated and tumor mass (FIG. 2A) determined. Tumors were digested and the ratio of activated CD44^hi CD43^+CD8 T cells to FoxP3^+ Tregs determined (FIG. 2B). PD-1 expression on tumor-isolated CD8+ T cells was measured by flow cytometry (FIG. 2C). Symbols represent individual mice, composite of two experiments. *p<0.05, **p<0.01.
B6 mice were transplanted with Py230 triple negative breast cancer cell line, tumors were measured 3×/week for 63 days. BIBN4096 or DMSO vehicle control (mock) were administered 1×/week starting on day 28 over a period of 4 weeks. Tumor was passed through a 70 µm cell strainer and single cell suspension was stained for flowcytometric analysis. FIG. 11A. BIBN4096 treated mice have a higher ratio of activated CD8^+ T cells to regulatory T cells (T reg) compared to the mock treated controls. FIG. 11B. […] FIG. 11C. […] FIG. 11D. Tumor infiltrating T cell subtypes at day 63 in BIBN4096 and mock treated controls. (n=15 group) Mann-Whitney Test, *p<0.05, **p<0.01, ****p<0.0001, n.s. not significant.

[3] = tested on: Py230 triple negative breast cancer cell line; assay: Py230 tumor transplant in B6 mice, BIBN4096 vs DMSO: tumor growth and tumor mass; type: in vivo; conditions: vs DMSO mock
Procedure: as §1
B6 mice were transplanted with Py230 triple negative breast cancer cell line, tumors were measured 3×/week for 63 days. BIBN4096 or DMSO vehicle control (mock) were administered 1×/week starting on day 28 over a period of 4 weeks. Tumor masses were measured at day 63. FIG. 10A. Tumor growth curves of BIBN4096 treated B6 mice and mock treated controls. FIG. 10B. Tumor masses of BIBN4096 treated mice and mock treated controls. (n=10/group), Mann-Whitney Test, *p<0.05.

## NCCCC[C@H](NC(=O)[C@@H](Cc1cc(Br)c(O)c(Br)c1)NC(=O)N1CCC(N2Cc3ccccc3NC2=O)CC1)C(=O)N1CCN(c2ccncc2)CC1 [BIBN4096, Olcegepant]
[1]
  tumor progression (continual growth of tumor), share of tumors: most tumors continued to progress
  tumor stagnation (cessation of growth for at least 3 weeks), share of tumors: 30%
[2]
  PD-1 expression on activated CD8+ T cells from tumor: increased expression
  ratio of activated CD8+ T cells to regulatory T cells (Treg) in tumor: higher ratio
  tumor infiltrating B cells: increased infiltration; also recorded: enhances CD8+ T cell activation and tumor infiltrating B cells
[3]; B6 mice, Py230, BIBN4096 1x/week from day 28 for 4 weeks, tumors measured for 63 days
  tumor growth: inhibits tumor growth; also recorded: stops growth of triple negative breast cancer
[3]; day 63 post-transplant
  tumor mass: decreases tumor mass
